The record followed here is patent publication US10793568B2, “Hormone receptor modulators for treating metabolic conditions and disorders” (ARDELYX, INC., priority 2016, dated 2020).

The target in this test is ligand binding domain of human FXR (Homo sapiens (Human), UniProt Q96RI1). In words: FXR ligand binding assay (LanthaScreen TR-FRET, SRC2-2 peptide recruitment). As to conditions: for pEC50: -log EC50, concentration required to produce 50% activation; for Emax: extent of activation relative to GW4064, read-out: % Efficacy. On the procedure:
The affinity of FXR ligands for the ligand binding domain of FXR was determined using a commercially available human FXR ligand binding assay (LanthaScreen, Thermofisher Cat # PV4833). […] Binding of FXR ligands to the FXR ligand binding domain promotes binding of the fluorescein-labelled SRC2-2 peptide. This causes a FRET signal between the terbium-labelled anti-GST antibody and the fluorescein-labelled SRC peptide which are both bound to the FXR ligand binding domain.
Test compounds are dissolved in DMSO and a 3-fold serial dilution series is generated, then further diluted into assay buffer. The compounds are mixed with 5 nM GST-tagged FXR ligand binding domain, 5 nM Tb-labelled anti-GST antibody and 500 nM fluorescein-labelled SRC2-2 peptide in a pH7.4 buffer. The reaction is incubated at room temperature for 1 hour, then the FRET signal is measured as the ratio of the 520 nm/495 nm emission following excitation at 340 nm. The change in FRET signal is plotted against the test article concentration and fit to a 3-parameter logistical equation. The concentration required to produce 50% activation is expressed as pEC50 (−log EC50), and the extent of activation is expressed relative to GW4064 as % activation.
In general terms: In TR-FRET formats the signal depends on donor and acceptor labels being close together.

Chain of ligand binding domain of human FXR (Q96RI1 262-486): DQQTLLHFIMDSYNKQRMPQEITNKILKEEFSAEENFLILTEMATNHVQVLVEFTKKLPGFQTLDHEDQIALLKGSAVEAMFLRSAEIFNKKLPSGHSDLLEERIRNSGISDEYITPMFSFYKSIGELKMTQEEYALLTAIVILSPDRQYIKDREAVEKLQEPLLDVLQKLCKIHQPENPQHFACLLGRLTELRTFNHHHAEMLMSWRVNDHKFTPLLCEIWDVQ

For `CC1(C)CC(S(=O)(=O)NC(=O)c2ccc(N3C(=O)[C@@H]4C[C@H]3C[C@H]4OCc3c(-c4c(Cl)cccc4Cl)noc3C3CC3)cn2)CCO1` (stereo partly drawn) [Compound I-354, 5-((1S,4R,5R)-5-((5-cyclopropyl-3-(2,6-dichlorophenyl)isoxazol-4-yl)methoxy)-3-oxo-2-azabicyclo[2.2.1]heptan-2-yl)-N-((2,2-dimethyltetrahydro-2H-pyran-4-yl)sulfonyl)picolinamide], the pEC50 – broadly, the EC50 on a negative log10 scale, so that one unit is a factor of ten – is 8.1 and the Emax was 138%.

Turning to `O=C(O)c1ccc(N2C(=O)[C@@H]3C[C@H]2C[C@H]3OCc2c(-c3c(Cl)cccc3Cl)noc2C2CC2)nc1` [Compound I-322, 6-[(1S,4R,5R)-5-{[5-cyclopropyl-3-(2,6-dichlorophenyl)-1,2-oxazol-4-yl]methoxy}-3-oxo-2-azabicyclo[2.2.1]heptan-2-yl]pyridine-3-carboxylic acid], the pEC50 is listed as 7.4 and the Emax came to 132%.

Regarding `C[C@@H]1[C@@H]2C[C@@H](C[C@H]2OCc2c(-c3c(Cl)cccc3Cl)noc2C2CC2)N1c1ccc(C(=O)O)cc1F` [Compound I-363, 4-[(1S,3R,4S,5R)-5-[[5-cyclopropyl-3-(2,6-dichlorophenyl)-1,2-oxazol-4-yl]methoxy]-3-methyl-2-azabicyclo[2.2.1]heptan-2-yl]-3-fluorobenzoic acid], the pEC50 is on record as 7.1 and the Emax was found to be 61%.

As to `O=C(NS(=O)(=O)[C@@H]1CCC[C@H]1O)c1ncc(N2C(=O)[C@@H]3C[C@H]2C[C@H]3OCc2c(-c3c(Cl)cccc3Cl)noc2C2CC2)cc1F` [Compound I-349, 5-[(1S,4R,5R)-5-{[5-cyclopropyl-3-(2,6-dichlorophenyl)-1,2-oxazol-4-yl]methoxy}-3-oxo-2-azabicyclo[2.2.1]heptan-2-yl]-3-fluoro-N-{[(1R,2R)-2-hydroxycyclopentyl]sulfonyl}pyridine-2-carboxamide], the pEC50 came out at 8.2 and the Emax was found to be 171%.

With `O=C(NS(=O)(=O)C1CCCC1)c1ncc(N2C(=O)[C@@H]3C[C@H]2C[C@H]3OCc2c(-c3c(Cl)cccc3Cl)noc2C2CC2)cc1F` [Compound I-356, N-(cyclopentylsulfonyl)-5-((1S,4R,5R)-5-((5-cyclopropyl-3-(2,6-dichlorophenyl)isoxazol-4-yl)methoxy)-3-oxo-2-azabicyclo[2.2.1]heptan-2-yl)-3-fluoropicolinamide], the negative-log EC50 (pEC50) is on record as 8.6 and the Emax was determined as 168%.

Take `O=C(NS(=O)(=O)C1CC1)c1ncc(N2C(=O)[C@@H]3C[C@H]2C[C@H]3OCc2c(-c3c(Cl)cccc3Cl)noc2C2CC2)cc1F` [Compound I-355, 5-((1S,4R,5R)-5-((5-cyclopropyl-3-(2,6-dichlorophenyl)isoxazol-4-yl)methoxy)-3-oxo-2-azabicyclo[2.2.1]heptan-2-yl)-N-(cyclopropylsulfonyl)-3-fluoropicolinamide]: the pEC50 stood at 7.9 and the Emax was 157%.

`O=C(NS(=O)(=O)C1CC1)c1ccc(N2C(=O)[C@@H]3C[C@H]2C[C@H]3OCc2c(-c3c(Cl)cccc3Cl)noc2C2CC2)cn1` [Compound I-351, 5-((1S,4R,5R)-5-((5-cyclopropyl-3-(2,6-dichlorophenyl)isoxazol-4-yl)methoxy)-3-oxo-2-azabicyclo[2.2.1]heptan-2-yl)-N-(cyclopropylsulfonyl)picolinamide]: the pEC50 is on record as 7.6 and the Emax came to 132%.

For `O=C(O)CCc1ncc(N2C(=O)[C@@H]3C[C@H]2C[C@H]3OCc2c(-c3c(Cl)cccc3Cl)noc2C2CC2)cc1F` [Compound I-328, 3-{5-[(1S,4R,5R)-5-{[5-cyclopropyl-3-(2,6-dichlorophenyl)-1,2-oxazol-4-yl]methoxy}-3-oxo-2-azabicyclo[2.2.1]heptan-2-yl]-3-fluoropyridin-2-yl}propanoic Acid], the pEC50 is given as 6.9 and the Emax came to 87%.
